# Source: patent US20110197288A1, “Transgenic animal for screening of compounds that modulate cell proliferation, and its use in the pharmaceutical field” (priority 2009, published 2011)
# Key:
# [1] = tested on: bone marrow cells; assay: luciferase expression (RLU per microgram protein) in bone marrow cells of treated transgenic mice; type: in vivo, mouse; conditions: 5 day 5FU treatment, FIG. 8A
# Method: To assess the expression of luciferase in proliferating progenitor cells, bone marrow cells, that are highly enriched in hematopoietic precursors, were collected by flushing the femurs with culture medium and enzyme activity was analyzed in protein extracts (Ciana et al 2001), as shown in the graph in FIG. 3A.
# (§1) As an example of application for development of anti-proliferative drugs, heterozygous individuals of the transgenic mouse line according to the invention were treated as follows: a first group was treated with 150 ug/kg 5-fluorouracil (5FU), a well-known chemotherapeutic agent, while another group was treated with saline as control (vehicle) for 2 and 5 days.
# [2] = tested on: cell proliferation (luciferase reporter under CYCB2 promoter) in tissues; assay: luciferase activity in tissue protein extracts of treated CYCB2-luciferase transgenic mice; type: in vivo, mouse; conditions: 150 ug/kg 5FU, 2 and 5 days, all tissues analysed, versus saline vehicle; FIG. 7
# Method: For this purpose, organs were homogenized in lysis buffer and lysates were subjected to three cycles of freezing and thawing. Proteins were separated from DNA and lysosomes by centrifugation (13000×g for 30 min). After determining the protein concentration of the extract, the biochemical assay of luciferase activity was carried out by measuring luminescence emission with a luminometer. The relative luminescence units (RLU) determined during a measurement of 10 seconds were then expressed on the Y axis as RLU values per microgram protein. The results according to the graph in FIG. 2C indicate that, in the adult animal, light emission is restricted to organs characterized by basal homeostatic proliferation such as spleen, bone marrow, femur and sternum, or sites of active tissue remodeling in the mouse, such as joints of the feet, jaw, etc.
# as §1
# Mice were sacrificed and luciferase activity was evaluated in tissue protein extracts, as reported in the graph in FIG. 7.
# [3] = tested on: bone marrow cells; assay: cell cycle phase analysis of bone marrow cells by FACS with propidium iodide staining; type: in vivo, mouse; conditions: bone marrow cells from 5FU treated mice, vehicle 11.2%, FIG. 8B
# Method: as §1
# Cells were fixed with methanol acetone 4:1, stained with 0.1 mg/ml propidium iodide, a DNA fluorescent marker, and then subjected to FACS analysis.
# [4] = tested on: skin of transgenic mouse (luciferase reporter under CYCB2 promoter); assay: skin light emission imaging after cutaneous application of carcinogen to transgenic mouse; conditions: 0.24% DMBA solution in acetone on skin, day 7 relative to day 0; FIG. 9
# Method: To evaluate this application, the skin of a transgenic mouse according to the invention was treated with DMBA, a carcinogen, and the stimulation of light emission was measured for the carcinogen-treated side compared to the side treated with vehicle alone.
# In particular, a 0.24% DMBA solution in acetone was applied to the skin of transgenic individuals according to the invention. One week later (day 7 relative to day 0) the amount of luciferase produced was detected by measuring the light emission produced by the skin of the animals.
SMILES,luciferase expression in bone marrow cells [1],luciferase activity in tissue protein extracts [2],S phase cells [3] [%],induction of luciferase activity (light emission) versus region treated with vehicle alone [4] [fold]
"O=c1[nH]cc(F)c(=O)[nH]1 [5FU, 5-fluorouracil]",reduced luciferase expression,"Reduced luciferase activity, until levels that were undetectable",1.97,
"Cc1c2ccccc2c(C)c2c1ccc1ccccc12 [DMBA, 7,12-dimethylbenz(a)anthracene]",,,,12.5
